The text below walks through data of ChEMBL document CHEMBL6120940, “Discovery of N-Aryl-N'-[4-(aryloxy)cyclohexyl]squaramide-Based Inhibitors of LXR/SREBP-1c Signaling Pathway Ameliorating Steatotic Liver Disease: Navigating the Role of SIRT6 Activation” (J Med Chem, 2024).

SMILES strings stand for the structures. Calls of active or inactive are those of the source. The calls are words filed in the database; no cut-off is given here. Bounds are passed on as bounds.

The test system of data set [1] is HepG2. Description: Cytotoxicity against human HepG2 cells at >30 uM measured after 24 hrs by CCK-8 method. The class given is functional, cell-based.
Data set [2] relates to Mus musculus. The data set is described as follows: Anti-lipogenic activity against high fat died induced male C57BL/6J mouse obesity model assessed as effect on body weight at 15 mg/kg, po administered three times per week and measured for 5 weeks. The class given is functional, organism-based.
Data set [3] concerns Hepatocyte. The data set is described as follows: Inhibition of Fasn level in mouse hepatocyte at 10 uM preincubated with compound for 30 mins followed by T0901317 addition and measured after 12 hrs. The class given is functional, cell-based. Particulars: time 12.5 hrs.
A short description of data set [4]: Cmax in 16 hrs fasted ICR mouse at 20 mg/kg, po measured upto 8 hrs by LC-MS/MS analysis. The class given is ADME, organism-based. The settings on record: in vivo.
For data set [5], the system named is HepG2. The data set is described as follows: Effect on SREBP-1a in human HepG2 cells at 10 uM pretreated with compound for 30 mins followed by T0901317 addition and measured after 12 hrs by immunoblot analysis. Particulars: time 12.5 hrs. The class given is functional, cell-based. In general terms: Immunoblotting shows a protein as a band on a membrane.
Data set [6] is described as follows: Stability in mouse plasma measured after 120 mins by LC-MS/MS analysis. The class given is ADME, cell-free. The settings on record: read-out: Stability.
The test system of data set [7] is Hepatocyte. Description: Inhibition of LXR-induced fat accumulation in mouse Hepatocyte at 10 uM incubated for 30 mins followed by T0901317 addition by Oil red O staining based analysis. The class given is functional, cell-based.
For data set [8], the target named is T1, Sterol regulatory element-binding protein 1 (Homo sapiens) (UniProt P36956).
T1 sequence (whole entry): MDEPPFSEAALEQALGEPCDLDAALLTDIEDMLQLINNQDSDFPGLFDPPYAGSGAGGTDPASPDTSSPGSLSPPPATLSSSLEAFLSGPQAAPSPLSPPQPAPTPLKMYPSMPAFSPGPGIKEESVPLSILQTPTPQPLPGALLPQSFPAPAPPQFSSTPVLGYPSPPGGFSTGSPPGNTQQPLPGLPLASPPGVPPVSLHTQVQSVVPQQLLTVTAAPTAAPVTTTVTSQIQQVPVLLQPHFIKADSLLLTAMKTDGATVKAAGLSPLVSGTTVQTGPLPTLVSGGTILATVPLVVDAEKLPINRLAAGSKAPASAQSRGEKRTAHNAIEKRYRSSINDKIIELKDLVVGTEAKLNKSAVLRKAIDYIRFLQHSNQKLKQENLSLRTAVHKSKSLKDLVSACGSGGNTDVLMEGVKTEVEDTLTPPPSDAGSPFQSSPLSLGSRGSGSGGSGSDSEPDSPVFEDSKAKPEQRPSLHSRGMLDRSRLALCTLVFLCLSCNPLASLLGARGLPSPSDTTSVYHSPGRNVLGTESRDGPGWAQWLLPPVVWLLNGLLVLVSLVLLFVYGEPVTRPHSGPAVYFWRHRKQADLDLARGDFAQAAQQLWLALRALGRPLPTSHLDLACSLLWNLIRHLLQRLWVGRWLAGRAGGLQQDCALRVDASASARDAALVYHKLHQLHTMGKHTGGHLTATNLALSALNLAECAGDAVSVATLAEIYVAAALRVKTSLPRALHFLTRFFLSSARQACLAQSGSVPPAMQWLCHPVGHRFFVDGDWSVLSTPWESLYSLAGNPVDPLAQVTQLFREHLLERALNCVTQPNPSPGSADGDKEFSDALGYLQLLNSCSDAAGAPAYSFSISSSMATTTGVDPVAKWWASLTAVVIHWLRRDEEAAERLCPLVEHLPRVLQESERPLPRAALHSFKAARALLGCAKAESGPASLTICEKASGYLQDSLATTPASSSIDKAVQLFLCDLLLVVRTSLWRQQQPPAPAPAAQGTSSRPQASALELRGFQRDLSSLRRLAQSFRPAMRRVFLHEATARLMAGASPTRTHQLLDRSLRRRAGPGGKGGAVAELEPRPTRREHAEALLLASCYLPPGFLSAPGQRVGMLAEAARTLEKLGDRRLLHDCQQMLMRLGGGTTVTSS
Description: Inhibition of SREBP-1c transcriptional activity in HEK293 cells expressing LXRalpha/RXRalpha assessed as reduction in SRE-luciferase level pretreated with compound for 30 mins followed by T0901317 addition and measured after 12 hrs by Dual-Glo luciferase assay. The class given is cell-based. The settings on record: dose 2.5-5 µM, time 12.5 hrs.

The nature of data set [9]: Volume of distribution at steady state in 16 hrs fasted ICR mouse at 2 mg/kg, iv measured upto 8 hrs by LC-MS/MS analysis. The class given is ADME, organism-based. Particulars: in vivo, read-out: Vdss.
In data set [10] the test system is HepG2. The data set is described as follows: Downregulation of LXRalpha expression level in nucleus of human HepG2 cells at 10 uM preincubated with compound for 30 mins followed by T0901317 addition and measured after 24 hrs by immunoblot analysis. The class given is functional, cell-based. Particulars: time 24.5 hrs.
Data set [11] relates to HepG2. Description: Downregulation of LXRalpha expression level in human HepG2 cell lysate at 10 uM preincubated with compound for 30 mins followed by T0901317 addition and measured after 24 hrs by immunoblot analysis. The class given is functional, subcellular. The settings on record: time 24.5 hrs.
Data set [12] is described as follows: Tmax in 16 hrs fasted ICR mouse at 20 mg/kg, po measured upto 8 hrs by LC-MS/MS analysis. The class given is ADME, organism-based. The settings on record: in vivo.
Another data set relates to AML12. Description: Downregulation of SREBP-1c expression level in mouse AML12 cells at 10 uM pretreated with compound for 30 mins followed by T0901317 addition and measured after 12 hrs by RT-qPCR analysis. The class given is functional, cell-based. The settings on record: time 12.5 hrs.
The subject of data set [13] is HepG2. Description: Downregulation of ACACA expression level in human HepG2 cells at 5 to 10 uM pretreated with compound for 30 mins followed by T0901317 addition and measured after 12 hrs by RT-qPCR analysis. The class given is functional, cell-based. The settings on record: dose 5-10 µM, time 12.5 hrs.
For data set [14], the system named is HepG2. Description: Downregulation of ACACA mRNA level in human HepG2 cells at 10 uM pretreated with compound for 30 mins followed by […] addition and measured after 12 hrs by RT-qPCR analysis. The class given is functional, cell-based. The settings on record: time 12.5 hrs. Background: Real-time PCR tracks product formation cycle by cycle.
Data set [15] relates to HepG2. Description: Downregulation of ACACA expression in human HepG2 cells at 5 uM pretreated with compound for 30 mins followed by T0901317 addition and measured after 12 hrs in presence of compound C by immunoblot analysis. The class given is functional, cell-based. Particulars: time 12.5 hrs.
Data set [16] is described as follows: Clearance in 16 hrs fasted ICR mouse at 2 mg/kg, iv measured upto 8 hrs by LC-MS/MS analysis. The class given is ADME, organism-based. Particulars: in vivo.
Data set [17] in a line: Metabolic stability in rat liver microsomes at 1 uM measured after 30 mins in presence of NADPH regeneration system by LC-MS/MS analysis. The class given is ADME, Microsome. Particulars: read-out: Stability.
The test system of data set [18] is Mus musculus. The data set is described as follows: Anti-lipogenic activity against high fat died induced male C57BL/6J mouse obesity model assessed as reduction hepatic triglyceride level at 15 mg/kg, po administered three times per week and measured for 5 weeks by H and E staining based analysis. The class given is functional, organism-based.
Data set [19] can be described thus: Downregulation of SREBP-1c mRNA expression in human HepG2 cells at 10 uM pretreated with compound for 30 mins followed by T0901317 addition and measured after 12 hrs by RT-qPCR analysis relative to control. Particulars: time 12.5 hrs. The class given is functional.
For data set [20], the system named is Mus musculus. Description: Anti-lipogenic activity against high fat died induced male C57BL/6J mouse obesity model assessed as downregulation of scd level at 15 mg/kg, po administered three times per week and measured after 5 weeks by RT-qPCT analysis. The class given is functional, organism-based.
Data set [21] concerns Mus musculus. The data set is described as follows: Anti-lipogenic activity against high fat died induced male C57BL/6J mouse obesity model assessed as downregulation of Cxcl10 mRNA level at 15 mg/kg, po administered three times per week and measured after 5 weeks by RT-qPCT analysis. The class given is functional, organism-based.

As usually defined, the Cmax is the peak of the concentration-time curve. As a reminder, the Tmax is the time at which the peak concentration occurs. By clearance is commonly meant the volume of plasma or blood freed of the substance per unit of time. A lower clearance goes with inefficient removal.

Turning to `COc1ccccc1Nc1c(N[C@H]2CC[C@H](Oc3ccc([N+](=O)[O-])cc3)CC2)c(=O)c1=O`, the outcome with HepG2 [1], in the data set with HepG2 [10], in the data set on HepG2 [11], in the data set with AML12, with HepG2 [13] and in the data set on HepG2 [14] was Active. In addition, the result with Mus musculus [18], with Mus musculus [20] and in the data set on Mus musculus [21] was Active. The result with Mus musculus [2], in the data set with HepG2 [5] and in the data set on HepG2 [15] was inactive. Further, the inhibition result in the data set with Hepatocyte [3] and in the data set with Hepatocyte [7] was “Active” in each case. This molecule yielded a Cmax in [4] of 2300 ng/mL. The remaining at 2 h in data set [6] was > 100%. Further, in data set [8], the inhibition entry is “Dose-dependent-effect”. The Vd in data set [9] was found to be 1.1 L/kg. Further, in data set [12], the Tmax amounted to 18 min. The same molecule gave a clearance in [16] of 13.3 mL/min/kg. The remaining at 0.5 h, 1 µM in data set [17] was determined as 32.5%. Also, the Activity in data set [19] is reported as 16.2%.
